Data taken from patent EP2241555A1, “New RAC1 inhibitors as potential pharmacological agents for heart failure treatment” (UNIVERSITA' DEGLI STUDI DI MILANO, priority 2009, dated 2010).
Read-outs that look alike come from different tables or passages of the source. Values belong to the molecule of their own block, whether it stands above or below them.

Assays:
HepG2 cells = test: Resazurine cytotoxicity assay (metabolic activity), HepG2; format: cell-based, human; conditions: for toxic classification / MVC / EC50: HepG2, 24 h; for toxic classification: classification in words in the text; for MVC: maximal viability concentration; for Cytotoxicity-Classification: HepG2, 24 h exposure; for EC50: Homo sapiens
Description: (§1) For a pre-screening of the compounds they were first tested in human hepatocellular carcinoma cells (HepG2 cells)for 24 h and to gain further information about the cytotoxic potential more specific target tissues like the mouse cardiomyocytes HL-1 and primary rat cardiomyocytes were used additionally. […] The toxicity classification has been determined by using drugs currently utilized in clinic with known toxicity profile

Caco2 = Caco2 monolayer permeation; format: in vitro ADME, human; conditions: Caco2 monolayers, 90 min, start concentration 50 µM
Description: (§2) The permeation characteristics of the Rac1 inhibitors were determined first in the artificial system PAMPA (Parallel Artificial Membrane Permeability Assay) which uses a membrane covered with a lipid to simulate the lipid bilayer of various cell types, including intestinal epithelium and second in vitro across Caco2, a human colon carcinoma cell line seeded as monolayers onto polycarbonate membranes. The PAMPA is able to predict the ability of a compound to permeate by a passive transcellular transport through an artificial lipid layer assembled on a membrane and also allows a classification into low (flux <20%), medium (20%≤ flux ≤70%), and high (flux >70%) absorbing substances. The Caco2 assay provides a well-established in vitro model to predict the human intestinal absorption.

[1] = Caco2 monolayer permeation; format: in vitro ADME, human; conditions: human, Caco-2, Caco2 monolayers, start concentration 50 µM
Description: as §2

[2] = PAMPA (Parallel Artificial Membrane Permeability Assay); format: in vitro ADME; conditions: start concentration 250 µM, diffusion period 16 h
Description: as §2
The flux rate of the compounds of the invention and the reference NSC23766 was measured from a donor compartment to an acceptor compartment across the lipid layer at a start concentration of 250 µM over a diffusion period of 16 h.

HL-1 cells = test: Apoptosis of ischemic HL-1 cardiomyocytes (TUNEL assay, flow cytometer); format: cell-based, mouse; conditions: 100 µM; 8 h ischemia (glucose deficient medium + hydrogen peroxide); 8h Ischemia alone 701.6, 8h Control 100
Description: To establish a cardiomyocytes based apoptosis assay, which mimics the post-ischemic damage observed after myocardial infarction, we have utilized a cardiac muscle cell line, HL-1 cells, derived from the AT-1 mouse atrial cardiomyocyte tumor lineage. The HL-1 cells were incubated in glucose deficient medium in the presence of hydrogen peroxide and either in presence or absence of compounds of the invention Apoptosis rate of ischemic HL-1 cells was normalised to the apoptosis rate of the 8h control cells under non-ischemic conditions, thus incubated with normal concentration of glucose in the absence of hydrogen peroxide. Both non-ischemic and ischemic HL-1 cultures were harvested after 8 hours. […] The apoptotic rates were then evaluated by TUNEL assay, a method for detecting DNA strand breaks in apoptotic cells by flow cytometer The solvent of the compounds, i.e DMSO, has no influence on the apoptosis rate. […] Effect of newly synthesized compounds with Rac1 inhibitory activity on apoptosis rate in HL-1 cells normalized to control (TUNEL-assay) The data are representative of two experiments.

Rac1 = target: T1, Rac1 (Homo sapiens, UniProt P63000); test: G-LISA assay of intracellular Rac1-GTP in PDGF-BB stimulated human smooth muscle cells; format: cell-based; conditions: for remaining activity at 50 µM / remaining activity at 100 µM: read-out: Rac1 inhibitory activity (% vs control); for inhibitory action on Rac1 activity: G-LISA, 50 µM, statement in words; for remaining activity at 100 µM: Concentration 100 µm
T1 construct: endogenous in cells; host or cells: human cultured smooth muscle cells, stimulated with PDGF-BB
Excerpt: The intracellular amount of Rac1-GTP has been determined using the GLISA™ assay (Cytoskeleton, Inc). The GLISA™ assay uses a 96-well plate coated with RBD domain of Rac1-family effector protein PAK1. […] A significant inhibition on Rac1 activity should decrease the intracellular levels of Rac1-GTP and therefore reduce the percentage of Rac1-GTP detected compared to control untreated cells.

[3] = system: primary rat cardiomyocytes; test: Resazurine cytotoxicity assay (metabolic activity), primary rat cardiomyocytes; format: cell-based; conditions: for MVC / EC50: 24 h; for MVC: maximal viability concentration; for Cytotoxicity-Classification: 24 h exposure; for EC50: Cardiomyocyte, metabolic activity
Description: as §1

HL-1 = test: Resazurine cytotoxicity assay (metabolic activity), HL-1; format: cell-based, mouse; conditions: for MVC / EC50: HL-1, 24 h; for MVC: maximal viability concentration; for Cytotoxicity-Classification: HL-1, 24 h exposure; for EC50: Mus musculus, metabolic activity
Description: as §1

[4] = tissue homogenate, 60 min, 10 µM
Description: The basic incubation mixture with total volume of 500 µl consisted of the following components. 100 µl liver homogenate, compound in DMSO (dimethyl sulfoxide) and 1 mM NADPH (reduced nicotinamide adenine dinucleotide phosphate), 1 mM UDPGA (uridine 5'-diphosphoglucuronic acid), 1 mM PAPS (3'-phosphoadenosine-5'-phosphosulfate) and 1 mM GSH (glutathione). The substrate concentration used was 10 µM. Two parallel incubations, one with cofactors and one without, were made. Final DMSO concentration in the incubation was 1 µM. […] Reaction was started by addition of a cofactor mixture and stopped by adding 250 µl of ice-cold acetonitrile.

[5] = Concentration 50 µm, 4 hours incubation, then PDGF-BB 10 ng/ml, Rac1-GTP detected relative to control (100), lower = more inhibition
[6] = metabolic activity, read-out: EC50
[7] = 4 hours incubation, then PDGF-BB 10 ng/ml, Rac1-GTP detected relative to control (100), lower = more inhibition

remaining activity at 50 µM (Rac1; [5]): 102%
Structure (SMILES): CCN(CC)CCCC(C)Nc1nc(C)cc(Oc2ccc3nc(C)ccc3c2)n1 (stereo not drawn) [CWB001/01018, N1,N1-Diethyl-N4-[4-methyl-6-(2-methyl-quinolin-6-yloxy)-pyrimidin-2-yl]-pentane-1,4-diamine]

remaining activity at 50 µM (Rac1; [5]): 109%
Structure (SMILES): CCN(CC)CCCC(C)Nc1nc(C)cc(NCCc2c[nH]c3ccccc23)n1 (stereo not drawn) [CWB002/02038, N2-(4-Diethylamino-1-methyl-butyl)-N4-[2-(1H-indol-3-yl)-ethyl)-6-methylpyrimidine-2,4-diamine]

remaining activity at 50 µM (Rac1; [5]): 93.8%
Structure (SMILES): CCN(CC)CCCC(C)Nc1nc(C)cc(Nc2ccc3ncccc3c2)n1 (stereo not drawn) [CWB003/01020, N2-(4-Diethylamino-1-methyl-butyl)-6-methyl-N4-quinolin-6-yl-pyrimidine-2,4-diamine]

remaining activity at 50 µM (Rac1; [5]): 106%
Structure (SMILES): CCN(CC)CCCC(C)Nc1nc(C)cc(Nc2ccc3nc(C)cc(O)c3c2)n1 (stereo not drawn) [CWB005/02039, 6-[2-(4-Diethylamino-1-methyl-butylamino)-6-methyl-pyrimidin-4-ylamino]-2-methyl-quinolin-4-ol]

remaining activity at 50 µM (Rac1; [5]): 92.9%
Structure (SMILES): CCOC(=O)CNc1cc(C)nc(NC(C)CCCN(CC)CC)n1 (stereo not drawn) [CWB012/01025, [2-(4-Diethylamino-1-methyl-butylamino)-6-methyl-pyrimidin-4-ylamino]-acetic acid ethyl ester]

remaining activity at 50 µM (Rac1; [5]): 83.9%
Structure (SMILES): CCN(CC)CCCC(C)Nc1nc(C)cc(NCC(=O)O)n1 (stereo not drawn) [CWB015/01031, [2-(4-Diethylamino-1-methyl-butylamino)-6-methyl-pyrimidin-4-ylamino]-acetic acid]

remaining activity at 100 µM (Rac1; [7]): 98%
Structure (SMILES): CCN(CC)CCCC(C)Nc1nccc(Nc2ccc3cc[nH]c3c2)n1 (stereo not drawn) [CWB023/02053, N2-(4-Diethylamino-1-methyl-butyl)-N4-(1H-indol-6-yl)-pyrimidine-2,4-diamine]

remaining activity at 100 µM (Rac1; [7]): 123%
Structure (SMILES): CCN(CC)CCCC(C)Nc1nc(C)cc(NCCc2c[nH]c3ccc(O)cc23)n1 (stereo not drawn) [CWB025/02056, 3-{2-[2-(4-Diethylamino-1-methyl-butylamino)-6-methyl-pyrimidin-4-ylamino]-ethyl}-1H-indol-5-ol]

remaining activity at 100 µM (Rac1; [7]): 111%
Structure (SMILES): CCN(CC)CCCC(C)Nc1cc(C)nc(NCCc2c[nH]c3ccc(O)cc23)n1 (stereo not drawn) [CWB027/02058, 3-{2-[4-(4-diethylamino-1-methyl-butylamino)-6-methyl-pyrimidin-2-ylamino]-ethyl}-1H-indol-5-ol]

More lines, now with the values behind:

Structure (SMILES): CCN(CC)CCCC(C)Nc1nc(C)cc(Nc2ccc3nc(C)cc(N)c3c2)n1 (racemic) [NSC23766, reference compound]
toxic classification (HepG2 cells): not toxic (not toxic (EC50 > 500 µM))
MVC (HepG2 cells): 31.2 µM
Cytotoxicity-Classification (HepG2 cells): no (EC50 > 500 µM, (no))
EC50 (HepG2 cells): > 500 µM
Caco2 Classification (Caco2): medium (compounds with Papp between 1 and 10 are moderately absorbed (20 - 70%))
Papp at 90 min, 50 µM [1]: 2.4 ± 4.2 ×10⁻⁶ cm/s
PAMPA classification [2]: low (low (flux <20%))
PAMPA flux [%] ± SD [2]: 11±4%
Relative rate of apoptosis normalised to control [%] (HL-1 cells): 546.5%

Structure (SMILES): Cc1cc(Nc2ccc3nc(C)cc(O)c3c2)nc(NCCc2c[nH]c3ccccc23)n1 [CWB006/02035, 6-{2-[2-(1H-Indol-3-yl)-ethylamino]-6-methyl-pyrimidin-4-ylamino}-2-methyl-quinolin-4-ol]
remaining activity at 50 µM (Rac1; [5]): 91.5%

Structure (SMILES): CCN(CC)CCCC(C)Nc1nc(C)cc(N2CCOCC2)n1 (stereo not drawn) [CWB007/02040, N1,N1-Diethyl-N4-(4-methyl-6-morpholin-4-yl-pyrimidin-2-yl)-pentane-1,4-diamine]
remaining activity at 50 µM (Rac1; [5]): 101%

Structure (SMILES): CCN(CC)CCCC(C)Nc1nc(C)cc(N2CCCCC2)n1 (stereo not drawn) [CWB008/02044, N1,N1-Diethyl-N4-(4-methyl-6-piperidin-1-yl-pyrimidin-2-yl)-pentane-1,4-diamine]
remaining activity at 50 µM (Rac1; [5]): 95.8%

Structure (SMILES): CCN(CC)CCCNc1nc(C)cc(Oc2ccc3nc(C)ccc3c2)n1 [CWB011/01023, N,N-Diethyl-N'-[4-methyl-6-(2-methyl-quinolin-6-yloxy)-pyrimidin-2-yl]-propane-1,3-diamine]
remaining activity at 50 µM (Rac1; [5]): 94.8%

Structure (SMILES): CCN(CC)CCCC(C)Nc1cc(C)nc(N2CCOCC2)n1 (stereo not drawn) [CWB016/02046, N1,N1-Diethyl-N4-(6-methyl-2-morpholin-4-yl-pyrimidin-4-yl)-pentane-1,4-diamine]
remaining activity at 50 µM (Rac1; [5]): 93.2%

Structure (SMILES): COC(=O)C(CC(C)C)Nc1cc(C)nc(Nc2ccc3ncccc3c2)n1 (stereo not drawn) [CWB018/01034, 4-Methyl-2-[6-methyl-2-(quinolin-6-ylamino)-pyrimidin-4-ylamino]-pentanoic acid methyl ester]
toxic classification (HepG2 cells): low toxic (low toxic (100 µM < EC50 ≤ 500 µM))
MVC (HepG2 cells): 62.5 µM
Cytotoxicity-Classification (HepG2 cells): + (100 µM < EC50 ≤ 500, low (+))
EC50 (HepG2 cells; [6]): 162 µM
MVC [3]: 31.2 µM
Cytotoxicity-Classification [3]: ++ (10 µM < EC50 ≤ 100 µM, medium (++))
EC50 [3]: 85 µM
Caco2 Classification (Caco2): high (compounds with a Papp >10 are predicted to be well absorbed (70 - 100%))
Papp at 90 min, 50 µM [1]: 20.5 ± 1.9 ×10⁻⁶ cm/s
remaining activity at 50 µM (Rac1; [5]): 34.2%
inhibitory action on Rac1 activity (Rac1): significant end efficient inhibitory action
MVC (HL-1): 15.6 µM
Cytotoxicity-Classification (HL-1): ++ (10 µM < EC50 ≤ 100 µM, medium (++))
EC50 (HL-1): 68 µM
PAMPA classification [2]: high (high (flux >70%))
PAMPA flux [%] ± SD [2]: 85±11%

Structure (SMILES): CCN(CC)CCCC(C)Nc1nccc(Oc2ccc3ccccc3c2)n1 (stereo not drawn) [CWB019/01037]
Remaining Rac1-GTP (% of control) (Rac1; [5]): 101.3%

Structure (SMILES): c1cc(NCc2ccc3[nH]ccc3c2)nc(NCc2ccc3[nH]ccc3c2)n1 [CWB020/01041, N2,N4-Bis-(1H-indol-5-ylmethyl)-pyrimidine-2,4-diamine]
remaining LC/MS peak area (relative to 0 min incubation samples, %) [4]: 33-41%
MVC (HepG2 cells): 7.8 µM
Cytotoxicity-Classification (HepG2 cells): ++ (10 µM < EC50 ≤ 100 µM, medium (++))
EC50 (HepG2 cells; [6]): 64 µM
MVC [3]: 3.9 µM
Cytotoxicity-Classification [3]: ++ (10 µM < EC50 ≤ 100 µM, medium (++))
EC50 [3]: 17 µM
Caco2 Classification (Caco2): high (compounds with a Papp >10 are predicted to be well absorbed (70 - 100%))
Papp at 90 min, 50 µM [1]: 65.9 ± 3.1 ×10⁻⁶ cm/s
remaining activity at 50 µM (Rac1; [5]): 17.1%
inhibitory action on Rac1 activity (Rac1): significant end efficient inhibitory action
MVC (HL-1): 15.6 µM
Cytotoxicity-Classification (HL-1): ++ (10 µM < EC50 ≤ 100 µM, medium (++))
EC50 (HL-1): 39 µM
PAMPA classification [2]: high (high (flux >70%))
PAMPA flux [%] ± SD [2]: 54±4%

Structure (SMILES): CCN(CC)CCCCNc1nc(C)cc(NCCc2c[nH]c3ccc(O)cc23)n1 [CWB026/02057, 3-{2-[2-(4-Diethylamino-butylamino)-6-methyl-pyrimidin-4-ylamino]-ethyl}-1H-indol-5-ol]
remaining activity at 100 µM (Rac1; [7]): 108%
